From patent publication US20220402883A1, “COMPOUNDS AND METHODS FOR MODULATING RNA FUNCTION” (Arrakis Therapeutics, Inc., priority 2016, published 2022)
Entries after “also recorded” stand apart in the source; their conditions may differ.

Experiments:
[1] = system: RNA3WJ_1.0.0_5IB_3FAM (cis 3WJ with one unpaired nucleotide); experiment: Fluorescence quenching binding assay (FAM / Iowa Black); details: two concentration points
Protocol: (§1) This assay will be used to test binding of compounds for RNA three way junction (such as a 38 nt construct). This is a fluorescence quenching assay utilizing FAM as fluorescence tag and Iowa Black as quencher. Tags are attached at the 3′ and 5′ end, respectively. Stable formation of MW upon compound binding would lead to quenching of the FAM fluorescence due to close proximity of the Iowa Black tag. Assay readout: FAM (485-520 nm) Fluorescence Intensity.
(§2) Assay sample buffer used: 10 mM CacoK pH 7.2, 30 mM NaCl. Buffer preparation in Dnase/Rnase Free distilled water (Gibco Life Technologies).
(§3) Dilute the RNA 1:10 (final 10 μM) in Assay Buffer.
(§4) Heat up the diluted RNA up to 90° C. for 5 min (sealed Eppendorf Tube).
(§5) Cool down the RNA probe slowly to RT.
(§6) Dilute the compounds to 800 μM in DMSO (Assay: 8 μM).
(§7) Final concentrations in the sample: 1-10 μM RNA, 8 μM compound, 1% DMSO
(§8) Pipet 25 μL Sample Solution into Greiner cat #784076, black, 384
(§9) Measure the 96 plate with the LightCycler480 (Channel: 485/520 nm).
(§10) The fluorescence quenching experiment was repeated for compounds Ark0000013 and Ark0000014 to measure binding with:
A) RNA3WJ_1.0.0_5IB_3FAM (cis 3WJ with one unpaired nucleotide)
(§11) Both cmpds were tested at two concentration points in the fluorescence quenching assays to assess effect upon RNA constructs utilized in the study. […]

[2] = system: Split3WJ.1_up_5IB+Split3WJ.1_down_3FAM (trans 3WJ as 1:1 mix; Split3WJ_1); experiment: Thermal shift binding assay; details: 1 μM RNA, 8 μM compound, 10 mM CacoK pH 7.2, 30 mM NaCl
Source text: (§12) Purpose: Test binding of compounds for RNA three way junction (for example, a construct of 38 nt). Thermal shift assay based on established fluorescence quenching assay utilizing FAM as fluorescence tag and Iowa Black as quencher. Tags were attached at the 3′ and 5′ end, respectively. Stable formation of 3WJ upon compound binding would lead to quenching of the FAM fluorescence due to close proximity of the Iowa Black tag. Thermal unfolding leads to increase of fluorescence emission. Assay readout: FAM (465-510 nm) Thermal Shift.
as §2, §3, §4, §5, §6
(§13) Final concentrations in the sample: 1 μM RNA, 8 μM compound, 1% DMSO
(§14) Pipet 20 μL Sample Solution into Roche, Light Cycler480 Multiwell Plate96, white, REF 04729692001.
(§15) Measure the 96 plate with the LightCycler480 (Channel: 480/510 nm; Temperature: 41-91° C.).
(§16) Analyse measurement-data with the MeltingCurveGenotyping Mode.
(§17) Settings: Acquisition mode: continuous; Ramp rate: 0.1° C./sec; Acquisition: 6° C.
(§18) Curves are fitted with raw and normalized data.
(§19) Melting curves analysis show melting temperature (Tm) of ˜51° C. Range of RNA concentrations was tested and assay window was determined (conc. range of 0.5-1 μM yields best results). The choice of buffer also affected the Tm. RNA constructs were tested under different buffer conditions (especially in presence of salt) in the thermal shift assay. […] CacoK with 30 mM salt at 1 μM RNA conc. was used to assess compound effects on 3WJ stability. […] These conditions were used for screening test compounds.
(§20) Compounds Ark0000013 and Ark0000014 were also tested in the thermal shift assay against three RNA 3WJ constructs, A) RNA3WJ_1.0.0_5IB_3FAM (cis 3WJ with one unpaired nucleotide); B) Split3WJ.1_up_5IB+Split3WJ.1_down_3FAM (trans 3WJ as 1:1 mix); and C) Split3WJ.2_up_5IB+Split3WJ.2_down_3FAM (trans 3WJ as 1:1 mix).

[3] = system: RNA3WJ_1.0.0_5IB_3FAM (cis 3WJ with one unpaired nucleotide); experiment: Thermal shift binding assay; details: 1 μM RNA, 8 μM compound
Source text: as §12, §2, §3, §4, §5, §6, §13, §14, §15, §16, §17, §18, §19, §20

[4] = system: Split3WJ.2_up_5IB+Split3WJ.2_down_3FAM (trans 3WJ as 1:1 mix; Split3WJ_2); experiment: Thermal shift binding assay; details: 1 μM RNA, 8 μM compound, 10 mM CacoK pH 7.2, 30 mM NaCl
Source text: as §12, §2, §3, §4, §5, §6, §13, §14, §15, §16, §17, §18, §19, §20

[5] = system: Split3WJ.1_up_5IB+Split3WJ.1_down_3FAM (trans 3WJ as 1:1 mix); experiment: Fluorescence quenching binding assay (FAM / Iowa Black); details: two concentration points
Protocol: as §1, §2, §3, §4, §5, §6, §7, §8, §9, §10
B) Split3WJ.1_up_5IB+Split3WJ.1_down_3FAM (trans 3WJ as 1:1 mix)
as §11

RNA3WJ_2.0.0_5IB_3FAM = experiment: Thermal shift binding assay; details: 1 μM RNA, 8 μM compound, 10 mM CacoK pH 7.2, 30 mM NaCl
Source text: as §12, §2, §3, §4, §5, §6, §13, §14, §15, §16, §17, §18, §19

RNA3WJ_1.1.1_5IB_3FAM = experiment: Thermal shift binding assay; details: 1 μM RNA, 8 μM compound, 10 mM CacoK pH 7.2, 30 mM NaCl
Source text: as §12, §2, §3, §4, §5, §6, §13, §14, §15, §16, §17, §18, §19

RNA3WJ_2.1.0_5IB_3FAM = experiment: Thermal shift binding assay; details: 1 μM RNA, 8 μM compound, 10 mM CacoK pH 7.2, 30 mM NaCl
Source text: as §12, §2, §3, §4, §5, §6, §13, §14, §15, §16, §17, §18, §19

RNA3WJ_1.1.0_5IB_3FAM = experiment: Thermal shift binding assay; details: 1 μM RNA, 8 μM compound, 10 mM CacoK pH 7.2, 30 mM NaCl
Source text: as §12, §2, §3, §4, §5, §6, §13, §14, §15, §16, §17, §18, §19

Melting temp + cmpd [2]: 58.2 °C
Temp. Shift [2]: ~21 °C
Temp. Shift ([2]; listed as Ark0000013): 20.4 °C
Melting temp + cmpd ([3]; 10 mM CacoK pH 7.2, 30 mM NaCl): 87.0 °C
Temp. Shift ([3]; 10 mM CacoK pH 7.2, 30 mM NaCl): 21.4 °C
Melting temp + cmpd [4]: 56.9 °C
Temp. Shift [4]: ~13 °C
Temp. Shift ([4]; listed as Ark0000013): 12.2 °C
Melting temp + cmpd (RNA3WJ_2.0.0_5IB_3FAM): 84.3 °C
Temp. Shift (RNA3WJ_2.0.0_5IB_3FAM): 22.1 °C
Melting temp + cmpd (RNA3WJ_1.1.1_5IB_3FAM): 82.9 °C
Temp. Shift (RNA3WJ_1.1.1_5IB_3FAM): 20.7 °C
Melting temp + cmpd (RNA3WJ_2.1.0_5IB_3FAM): 45.7 °C
Temp. Shift (RNA3WJ_2.1.0_5IB_3FAM): 3.8 °C
Melting temp + cmpd (RNA3WJ_1.1.0_5IB_3FAM): 85.5 °C
Temp. Shift (RNA3WJ_1.1.0_5IB_3FAM): 22.2 °C
SMILES: CN(CCCN)CCCNC(=O)c1ccc2c(c1)C1c3cc(C(=O)NCCCN(C)CCCN)ccc3C2c2ccc(C(=O)NCCCN(C)CCCN)cc21 [Ark000013, N^2,N^7,N^15-tris(3-((3-aminopropyl)(methyl)amino)propyl)-9,10-dihydro-9,10-[1,2]benzenoanthracene-2,7,15-tricarboxamide]
fluorescence quenching effect (FAM fluorescence signal) [1]: significant concentration dependent effect
effect in the melting curves (in words) [3]: significantly lower fluorescence signal; also recorded: no proper melting curve
fluorescence quenching effect (FAM fluorescence signal) [5]: significant concentration dependent effect
